Results taken from patent US4016258A, “Vasoactive intestinal peptide from fowl” (priority 1975, dated 1977).
Ends that are not written are not given here.

Assays:
guinea pig trachea = assay: Isolated smooth-muscle organ strips superfused in series: guinea pig trachea
Description: (§1) 2. Isolated smooth-muscle organs
(§2) Four strips of smooth-muscle organs: rat stomach, guinea pig trachea, rat colon, and guinea pig gallbladder, were placed in series and superfused with warm physiological solution (Krebs), bubbled with 95% O2 and 5% CO2. The organ strips were attached to special transducers which measured their contraction or relaxation.

rat stomach = assay: Isolated smooth-muscle organ strips superfused in series: rat stomach; conditions: rat stomach strip superfused with Krebs solution; often initial brief contraction followed by relaxation
Description: as §1, §2

rat colon = assay: Isolated smooth-muscle organ strips superfused in series: rat colon; conditions: rat colon strip superfused with Krebs solution
Description: as §1, §2

guinea pig gallbladder = assay: Isolated smooth-muscle organ strips superfused in series: guinea pig gallbladder; conditions: guinea pig gallbladder strip superfused with Krebs solution
Description: as §1, §2

Intact anesthetized dogs = assay: Intact anesthetized dogs: infusion into one femoral artery, femoral blood flow and aortic blood pressure measured; assay type: in vivo, dog; conditions: for hypotensive effect compared with the porcine peptide: dogs, comparison with porcine vasoactive intestinal peptide
Description: 1. Intact anesthetized dogs
The peptide was infused into one femoral artery, and the blood flow in that artery, as well as the aortic blood pressure, were continually measured. During the infusion of the peptide, blood pressure fell and blood flow increased, indicating peripheral vasodilation.

Question: With “HSDAVFTDNYSRFRKQMAVKKYLNSVLT-NH2 [chicken peptide]” as the substance, how does the “relaxation of trachea compared with porcine peptide” value (guinea pig trachea; doses eliciting equal relaxation of stomach, chicken vs porcine peptide) read?
Answer: many times greater

Question: And the “effect on trachea strip” value (guinea pig trachea; guinea pig trachea strip superfused with Krebs solution)?
Answer: relaxation

Question: And the “relaxant potency on guinea pig trachea relative to other smooth muscles tested” value (guinea pig trachea; in comparison with porcine vasoactive intestinal peptide)?
Answer: relatively more potent relaxant

Question: What about the “effect on stomach strip” value (rat stomach) of the same substance?
Answer: relaxation

Question: What about the “effect on colon strip” value (rat colon) of the same substance?
Answer: usually contracted

Question: And the “effects on gallbladder strip” value (guinea pig gallbladder)?
Answer: variable

Question: What about the “aortic blood pressure during infusion” value (Intact anesthetized dogs; anesthetized dogs, infusion into femoral artery) of the same substance?
Answer: fell

Question: What about the “blood flow in femoral artery during infusion” value (Intact anesthetized dogs; anesthetized dogs, infusion into femoral artery, indicates peripheral vasodilation) of the same substance?
Answer: increased

Question: What about the “hypotensive effect compared with the porcine peptide” value (Intact anesthetized dogs) of the same substance?
Answer: less marked and shorter lasting

Question: What about the “hypotensive effect compared with the porcine peptide” value (Intact anesthetized dogs; listed as peptide) of the same substance?
Answer: relatively short duration
